Test results published in patent US9487508B2, “SGC stimulators” (IRONWOOD PHARMACEUTICALS, INC., priority 2012, dated 2016).

What was measured:
[1] = molecular target: T1, Human soluble guanylate cyclase enzyme (hsGC) (Homo sapiens, UniProt Q02108+Q02153); assay: Purified human sGC enzyme activity assay (without SNP); format: biochemical; conditions: 30 μM compound, fold change of specific activity vs DMSO control
T1 construct: purchased Enzo Inc. ALX-201-177
T1 sequence (Q02153 1-619): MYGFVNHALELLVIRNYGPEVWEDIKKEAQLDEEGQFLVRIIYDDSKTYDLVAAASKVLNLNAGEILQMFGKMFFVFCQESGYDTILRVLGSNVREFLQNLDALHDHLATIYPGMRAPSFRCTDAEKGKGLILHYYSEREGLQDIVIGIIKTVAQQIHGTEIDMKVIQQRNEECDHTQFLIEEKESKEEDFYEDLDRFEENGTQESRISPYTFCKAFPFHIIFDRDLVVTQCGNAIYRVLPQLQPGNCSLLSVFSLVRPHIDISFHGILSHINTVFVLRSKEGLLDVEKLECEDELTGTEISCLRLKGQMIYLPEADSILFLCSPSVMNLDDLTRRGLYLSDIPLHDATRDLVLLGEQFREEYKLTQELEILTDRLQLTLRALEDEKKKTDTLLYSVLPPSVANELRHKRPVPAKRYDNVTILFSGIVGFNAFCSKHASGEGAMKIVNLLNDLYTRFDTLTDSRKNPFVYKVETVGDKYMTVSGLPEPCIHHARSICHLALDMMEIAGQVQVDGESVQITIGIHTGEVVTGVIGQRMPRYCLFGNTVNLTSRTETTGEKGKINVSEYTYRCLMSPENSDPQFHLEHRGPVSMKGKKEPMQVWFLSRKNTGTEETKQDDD
T1 sequence (Q02108 1-690): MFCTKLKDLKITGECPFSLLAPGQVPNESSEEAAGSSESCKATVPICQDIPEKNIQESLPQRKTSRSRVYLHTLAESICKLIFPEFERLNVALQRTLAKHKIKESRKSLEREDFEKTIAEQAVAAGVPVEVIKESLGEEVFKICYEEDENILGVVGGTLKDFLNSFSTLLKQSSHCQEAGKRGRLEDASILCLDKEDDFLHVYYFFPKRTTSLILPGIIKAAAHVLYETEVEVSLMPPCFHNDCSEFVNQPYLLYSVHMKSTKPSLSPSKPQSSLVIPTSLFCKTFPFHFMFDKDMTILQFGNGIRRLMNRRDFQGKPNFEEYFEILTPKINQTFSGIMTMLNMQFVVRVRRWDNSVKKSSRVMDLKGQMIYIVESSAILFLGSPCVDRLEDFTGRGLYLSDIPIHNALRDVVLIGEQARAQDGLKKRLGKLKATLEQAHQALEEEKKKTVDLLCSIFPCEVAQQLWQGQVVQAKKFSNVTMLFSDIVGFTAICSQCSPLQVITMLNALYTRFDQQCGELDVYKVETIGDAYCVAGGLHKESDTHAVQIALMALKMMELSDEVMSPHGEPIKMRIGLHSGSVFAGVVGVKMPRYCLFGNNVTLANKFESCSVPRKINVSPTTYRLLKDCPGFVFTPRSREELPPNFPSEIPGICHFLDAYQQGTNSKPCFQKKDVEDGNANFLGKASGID
Description: Human soluble guanylate cyclase enzyme (hsGC) obtained from Enzo Inc. (P/N: ALX-201-177) was used to evaluate the activity of test compounds. The assay reactions contained 0.1 M Tris (pH 8.0), 0.5 mg/mL BSA (pH 8.0), 2 mM DTT, 2 mM MgCl2, 300 μM GTP, 1 mM 3-isobutyl-1-methylxanthine (IBMX) and 5 ng human soluble guanylate cyclase enzyme. Test compounds in DMSO were then added (2 μL, 10 or 30 μM final concentration) and incubated (water, 200 μL, 96-well plate format) at 37° C. for 30 minutes. The controls were carried out using 2 μL DMSO. After the 30 minute incubation, the reaction was stopped with the addition of 200 μL of cold methanol. The plate was then centrifuged at 3,200 rpm for 10 minutes at room temperature. Supernatants (200 μL) were collected and transferred to a new 96 well plate for analysis by HPLC LC/MS/MS.
An 8 point cGMP (Sigma-Aldrich P/N: G6129) standard curve was prepared in assay buffer ranging from 0.156-20 μM. Samples for the cGMP standard curve were then diluted with an equal volume of methanol resulting in final cGMP concentrations of 0.078-10 μM.
The cGMP standard curve was generated using GraphPad Prism Software.
Calculations: Specific Activity was determined by the amount of cGMP formed (nmoles) per mg of sGC per min. Enzyme “fold-change” was calculated by dividing Specific Activity for test compounds by Specific Activity of DMSO controls.

[2] = tested on: Thoracic aortic rings; assay: Thoracic aortic rings assay (Example 5); design: species or system Sprague-Dawley rats; conditions: rings contracted with 100 ng/mL phenylephrine
Description: Thoracic aortic rings were dissected from anesthetized (isoflurane) male Sprague-Dawley rats weighing 275-299 g. Tissues were immediately transferred to ice-cold Krebs-Henseleit solution, which had been aerated with 95% O2 and 5% CO2 for 30 minutes. Following removal of connective tissue, aortic sections were cut into 4 rings (˜2 mm each) and suspended on 2 L-shaped hooks, with one hook fixed at the bottom of the tissue bath (Schuler Organ Bath, Harvard Apparatus) and the other connected to a force transducer (F30 Force Transducer, Harvard Apparatus). Baths contained Krebs Henseleit solution (10 mL) heated to 37° C. and aerated with 95% O2 and 5% CO2. Rings were brought to an initial tension of 0.3-0.5 g and gradually raised to a resting tension of 1.0 g over 60 minutes. Rings were rinsed with Krebs Henseleit solution (heated to 37° C. and aerated with 95% 02 and 5% CO2) at 15 minute intervals until a stable baseline was obtained. Rings were considered to be stable after a resting tension of 1.0 g was maintained (for approximately 10 minutes) without need for adjustment. Rings were then contracted with 100 ng/mL phenylephrine by adding 100 uL of a 10 µg/mL phenylephrine stock solution. Tissues achieving a stable contraction were then treated in a cumulative, dose dependent manner with test compounds prepared in dimethylsulfoxide (DMSO). In some cases, tissues were rinsed three times over a 5 minute period with Krebs-Heinseleit's solution (heated to 37° C. and aerated with 95% 02 and 5% CO2), allowed to stabilize at baseline, and then used for characterization of other test articles or DMSO effects. All data were collected using the HSE-ACAD software provided by Harvard Apparatus. Percent relaxation effects were calculated in Microsoft Excel using the recorded tension value of 100 ng/mL phenylephrine treatment as 0% inhibition and treatment with 100 μM 3-isobutyl-1-methylxanthine as 100% inhibition. EC50 values were calculated from concentration-response curves generated with GraphPad Prism Software.
As an alternative thoracic aortic rings assay, the procedure of Example 5 was used except that percent relaxation effects were calculated in Microsoft Excel using the recorded tension value of 100 ng/mL phenylephrine treatment as 0% inhibition and, after washing the tissue with buffer, the original resting tension of the tissue was used as 100% inhibition.
The biological data for some of the compounds of Formula I or Formula Ib, in comparison with the known compound, BAY 41-2272, as the reference compound, determined by the thoracic aorta ring assay of Example 5 are presented in Table 6 below.

## Nc1ccnc(-n2cc(-c3ncco3)c(Cc3ccccc3F)n2)n1 [Compound I-2]
[1]
  Enzyme Activity (increase at 30 μM without SNP): C (C = 5 to <10 fold increase)
[2]; 1 μM, resting tension = 100%
  Aortic Ring Percent Relaxation at 1 μM: E (E = 60 or <80%)
[2]; 3 μM, resting tension = 100%
  Aortic Ring Percent Relaxation at 3 μM: F (F = 80 to <100%)
[2]; 10 μM, resting tension = 100%
  Aortic Ring Percent Relaxation at 10 μM: G (G = 100 to <120%)
[2]; Rattus norvegicus, read-out: Aortic Ring EC50
  EC50: < 2000 nM
